According to paper PMC11695783 (Frontiers in Pharmacology, 2024):
Where “and” joins values, the source holds several entries; their conditions need not be identical. Identical values can stand only once.

Experiment: Pharmacokinetic studies in mice (intravenous and intramuscular, plasma, HPLC-MS/MS)
Type: in vivo, BALB/c mice
Parameters: AUClast / AUCall / AUCINF_obs / AUCINF_pred / AUCINFobs: concentration or dose not given beside the values; Tlast / Clast / AUMClast / AUMCINF_obs / AUMCINF_pred / Lambda_z / HL_Lambda_z / Cl_obs / Cl_pred / Cl_F_obs / Tlag / Cl_F_pred: unit not given here
Details: IV; for plasma concentration: individual mice 1-8; for plasma concentration, AV: average of mice
Method: Pharmacokinetic experimental procedures of compound 16C were measured according to previous reports with some modifications ([Wang et al., 2022]). In brief, BALB/c mice were divided into two groups of eight mice each; one group was injected intravenously and the other was injected intramuscularly with compound 16C at a dose of 10 mg/kg. The dose was based on previous studies of novel pleuromutilin derivatives ([Jin et al., 2019]; [Wang et al., 2022]). Meanwhile, the dose of tiamulin approved by the European Union for intramuscular administration is 10–20 mg/kg ([EMA, 1999]). The volume of the injection was 0.1 mL/10 g. The compound 16C formulation was a filtered solution in 5% DMSO, 5% Tween-80, and 90% normal saline. Blood was obtained from eight mice via the ocular venous plexus at 0.083, 0.167, 0.25, 0.334, 0.5, 0.75, 1, 1.5, 2, 3, 4, 6, 8, and 12 h following tail intravenous or thigh Intramuscular injection. A glass capillary with a diameter of 0.3 mm was inserted into the outer canthus of the mouse, and 200 μL blood was collected using a 1.5 mL anticoagulant centrifuge tube. The blood was centrifuged at 3,000 rpm for 10 min to obtain plasma. 100 μL of plasma was aspirated for drug concentration detection, and eight parallel samples from different mice were obtained at each time point.
All pharmacokinetic experimental samples and method validation samples were added with 4 times the volume of acetonitrile and shaken for 1 min, centrifuged at high speed at 13,000× g for 10 min, and the supernatants were taken and filtered to detect the drug concentration. Some samples with high concentrations were diluted to the linear range prior to analysis.
The extracted samples were analyzed using a high-performance liquid chromatography-tandem mass spectrometry (HPLC-MS/MS) system (Agilent, Santa Clara, CA, United States) 1200 HPLC and Applied Biosystems (Waltham, MA, United States) API 4000 mass spectrometer). HPLC-MS/MS analysis using a Zorbax Eclipse XDB-C18 (4.6 × 50 mm, 3.5 μm) column (Agilent). The mobile phase A (acetonitrile) and B (water) were applied as a gradient as follows: 0–3 min: 15%–95% A and maintain from 3 min to 5 min at 95% A. 5–5.1 min: 95%–15% A and maintain from 5.1 to 10 min at 15% A. Flow rate: 500 μL/min; column temperature: 30°C and injection volume: 4 μL. The electrospray ionization (ESI) source of the mass spectrometer was operated in […], with the following ion source parameters: ion spray voltage 4,500 V, collision gas 7 psi, ion source gas 1 55 psi, ion source gas 2 40 psi, curtain gas 20 psi, source temperature 600°C. The precursor ion m/z of Compound 16C was 633.3, and the product ions m/z were 272.0 (quantifier) 286.9 and 313.0. Declustering potentials (DP) were 140, 140, and 144 V, respectively; entrance potential (EP) was 10 V; collision energy (CE) was 55, 46, and 15 V, respectively; and collision cell exit potential (CXP) was 14 V.
[…] Pharmacokinetic parameters include time to maximum concentration (Tmax), maximum concentration (Cmax), the area under the plasma concentration–time curve (AUC0-∞), clearance rate (CL), the apparent volume of distribution (Vd), bioavailability (F), elimination half-life (T1/2kel) and absorption half-life (T1/2ka).

Q: For `C=C[C@]1(C)C[C@@H](OC(=O)CSc2ccc(NC(=O)Cc3ccc([N+](=O)[O-])cc3)cc2)[C@]2(C)[C@H](C)CC[C@]3(CCC(=O)[C@H]32)[C@@H](C)[C@@H]1O`, which plasma concentration (0.083h) is on record?
A: 4.18 ng/mL and 5.51 ng/mL and 3.62 ng/mL and 4.5 ng/mL and 6.77 ng/mL and 4.82 ng/mL and 6.27 ng/mL and 4.14 ng/mL

Q: What about the “plasma concentration, AV” value (0.17h) of the same molecule?
A: 2.954 ng/mL

Q: What about the plasma concentration (0.17h) of the same molecule?
A: 2.24 ng/mL and 3.08 ng/mL and 2.67 ng/mL and 1.93 ng/mL and 4.06 ng/mL and 3.1 ng/mL and 3.5 ng/mL and 3.05 ng/mL

Q: And the “plasma concentration, AV” value (0.25h)?
A: 1.9525 ng/mL

Q: What about the plasma concentration (0.25h) of the same molecule?
A: 1.53 ng/mL and 1.91 ng/mL and 1.97 ng/mL and 1.44 ng/mL and 2.52 ng/mL and 1.83 ng/mL and 2.17 ng/mL and 2.25 ng/mL

Q: And the “plasma concentration, AV” value (0.33h)?
A: 1.413 ng/mL

Q: What about the plasma concentration (0.33h) of the same molecule?
A: 1.05 ng/mL and 1.59 ng/mL and 1.43 ng/mL and 0.752 ng/mL and 1.83 ng/mL and 1.19 ng/mL and 1.81 ng/mL and 1.65 ng/mL

Q: What about the “plasma concentration, AV” value (0.5h) of the same molecule?
A: 0.9296 ng/mL

Q: And the plasma concentration (0.5h)?
A: 0.563 ng/mL and 0.856 ng/mL and 1.02 ng/mL and 0.564 ng/mL and 1.49 ng/mL and 0.788 ng/mL and 0.986 ng/mL and 1.17 ng/mL

Q: What about the “plasma concentration, AV” value (0.75h) of the same molecule?
A: 0.4375 ng/mL

Q: And the plasma concentration (0.75h)?
A: 0.295 ng/mL and 0.454 ng/mL and 0.34 ng/mL and 0.281 ng/mL

Q: And the “plasma concentration, AV” value (1h)?
A: 0.1263 ng/mL

Q: What about the “plasma concentration, AV” value (1.5h) of the same molecule?
A: 0.0633 ng/mL

Q: And the “plasma concentration, AV” value (2h)?
A: 0.03673 ng/mL

Q: What about the “plasma concentration, AV” value (3h) of the same molecule?
A: 0.01748 ng/mL

Q: What about the “plasma concentration, AV” value (4h) of the same molecule?
A: 0.01406 ng/mL

Q: And the “plasma concentration, AV” value (6h)?
A: 0.005976 ng/mL

Q: And the “plasma concentration, AV” value (8h)?
A: 0.004256 ng/mL

Q: And the “plasma concentration, AV” value (12h)?
A: 0.002617 ng/mL

Q: What about the AUCINF_obs (individual mice) of the same molecule?
A: 1731 and 1454.8 and 1871.31 and 1501.72 and 1496.6 and 2594.18 and 1738.12 and 2317.09

Q: What about the AUCINF_pred (individual mice) of the same molecule?
A: 1730.96 and 1454.56 and 1871.3 and 1501.69 and 1496.6 and 2594.16 and 1737.96 and 2317.08

Q: What about the AUC_%Back_Ext_obs (individual mice) of the same molecule?
A: 23.2101% and 33.5458% and 33.5029% and 23.3787% and 40.4621% and 28.4699% and 29.0426% and 30.8151%

Q: What about the AUC_%Back_Ext_pred (individual mice) of the same molecule?
A: 23.2107% and 33.5513% and 33.5032% and 23.3791% and 40.462% and 28.47% and 29.0454% and 30.8152%

Q: And the AUC_%Extrap_obs (individual mice)?
A: 1.0811% and 0.9306% and 0.1046% and 0.8821% and 0.3771% and 0.7545% and 1.237% and 1.2773%

Q: What about the AUC_%Extrap_pred (individual mice) of the same molecule?
A: 1.0785% and 0.9144% and 0.1039% and 0.8804% and 0.3773% and 0.754% and 1.2276% and 1.277%

Q: And the AUCall (individual mice)?
A: 1712.29 and 1441.26 and 1869.35 and 1488.47 and 1490.96 and 2574.6 and 1716.62 and 2287.49

Q: And the AUClast (individual mice)?
A: 1712.29 and 1441.26 and 1869.35 and 1488.47 and 1490.96 and 2574.6 and 1716.62 and 2287.49

Q: And the AUMCINF_obs (individual mice)?
A: 945.518 and 756.201 and 591.051 and 764.612 and 715.375 and 1415.53 and 1084.7 and 1445.93

Q: And the AUMCINF_pred (individual mice)?
A: 944.931 and 753.432 and 590.916 and 764.278 and 715.413 and 1415.38 and 1082.77 and 1445.86

Q: What about the AUMC_%Extrap_obs (individual mice) of the same molecule?
A: 25.4794% and 20.837% and 3.3902% and 21.6397% and 12.7428% and 15.3656% and 22.9491% and 23.7174%

Q: What about the AUMC_%Extrap_pred (individual mice) of the same molecule?
A: 25.4331% and 20.546% and 3.368% and 21.6055% and 12.7474% and 15.3562% and 22.812% and 23.7133%

Q: And the AUMClast (individual mice)?
A: 704.605 and 598.632 and 571.014 and 599.152 and 624.216 and 1198.03 and 835.77 and 1103

Q: And the C0 (individual mice)?
A: 5541.15 and 7579.63 and 9597.07 and 4839.8 and 10091.7 and 11026.6 and 7343.77 and 10935.2

Q: And the Cl_obs (individual mice)?
A: 0.0069 and 0.0053 and 0.0067 and 0.0039 and 0.0058 and 4315.76

Q: What about the Cl_pred (individual mice) of the same molecule?
A: 0.0069 and 0.0053 and 0.0067 and 0.0039 and 0.0058 and 4315.77

Q: What about the Clast (individual mice) of the same molecule?
A: 3.84 and 3.72 and 0.875 and 2.95 and 1.36 and 6.29 and 6.01 and 8.25

Q: And the Cmax (individual mice)?
A: 4140 and 4180 and 5510 and 3620 and 4500 and 6770 and 4820 and 6270

Q: And the HL_Lambda_z (individual mice)?
A: 3.378 and 2.5225 and 1.5506 and 3.1126 and 2.8768 and 2.157 and 2.4798 and 2.4866

Q: And the Tlast (individual mice)?
A: 8 and 12

Q: What about the Cmax_D (individual mice, dose-normalised, in µg/mL) of the same molecule?
A: 0.0004 and 418 and 551 and 362 and 450 and 677 and 482

Q: What about the Lambda_z (individual mice, non-compartmental analysis) of the same molecule?
A: 0.2052 and 0.2748 and 0.447 and 0.2227 and 0.2409 and 0.3213 and 0.2795 and 0.2788

Q: And the MRTINF_obs (individual mice, in h)?
A: 0.5462 and 0.5198 and 0.3158 and 0.5092 and 0.478 and 0.5457 and 0.6241 and 0.624

Q: And the MRTINF_pred (individual mice, in h)?
A: 0.5459 and 0.518 and 0.3158 and 0.5089 and 0.478 and 0.5456 and 0.623 and 0.624

Q: What about the MRTlast (individual mice, in h) of the same molecule?
A: 0.4115 and 0.4154 and 0.3055 and 0.4025 and 0.4187 and 0.4653 and 0.4869 and 0.4822

Q: And the Tmax (individual mice, in h)?
A: 0.083
